Where “and” joins values, the source holds several entries; their conditions need not be identical. Equal values may be shown once.
Test system: AMO-1 xenografts
Assay: AMO-1 xenograft efficacy (tumor volume, body weight); as to Mortality Observation Day 34: key: EUTV: Euthanized: tumor volume; as to Mortality Observation Day 36: key: EUTV: Euthanized: tumor volume; as to Mortality Observation Day 68, individual animal: key: EUTV: Euthanized: tumor volume
Assay type: in vivo, mouse
Procedure: All animal studies were conducted in accordance with the guidelines approved by the Institutional Animal Care and Use Committees of AbbVie. The research protocol was approved by In Vivo Pharmacology at AbbVie prior to study initiation but was not publicly registered or disclosed. Female C.B-17 SCID-beige mice (AMO-1, OPM-2, NCI-H929, and OCI-AML2 xenografts) and female NSG mice (MV4-11-Red.Fluc systemic) were purchased from Charles River Laboratories (Wilmington, MA). Animals were housed in a light cycle-controlled room with HEPA filtration at 22 °C. Animals had nesting and climbing cage topper as the primary environmental enrichment. Animals were inoculated subcutaneously in the right flank with 5 × 10^6 (AMO-1, OPM-2, NCI-H929, and OCI-AML2) or intravenous (IV) with 5 × 10^6 (MV4-11-Red.Fluc). The inoculation volume (0.2 mL) comprised a 50:50 mixture of cells in growth media and Matrigel (BD Biosciences) for subcutaneous injections and 100% phosphate-buffered saline for IV administration. All cell lines used in this publication were authenticated using IDEXX for STR profiling as well as their IMPACT and human IMPACT panels for pathogen screening. Electronic calipers were used to measure the length and width of each tumor 2 to 3 times per week. Tumor volume was estimated by applying the following equation: volume = length × width^2/2. All groups remained blinded during measurements and dosing; only veterinary staff were aware of group identity. When tumors reached approximately 200 mm^3, mice were randomized by match and distributed into treatment and control groups. All xenograft trials were conducted using 5 to 10 mice per group, and all mice were ear tagged and monitored individually throughout the studies. […] Tumor burden in the systemic MV4-11-Red.Fluc experiment was measured using an IVIS® spectrum from PerkinElmer by taking the total photon flux of the entire dorsal side of an individual mouse. […] A background control mouse that was tumor naive but received D-Luciferin was placed in the upper left corner of each image. The total flux from this animal was subtracted from the total flux of each animal present in the image.
For in vivo studies, maximal tumor growth inhibition (TGI) was calculated as the greatest treatment response using the following equation: Maximal TGI = (1 − mean tumor volume of the treated group/mean tumor volume of the vehicle control group) × 100. The tumor growth delay (TGD) percentage was determined as the percentage increase of the median time period for the treatment group to reach an arbitrary tumor volume of 1000 mm^3 relative to the vehicle control group. […] A power analysis was conducted using historical data to determine the number of animals required to yield significance of 0.05 at a 30% difference. […] Data from experiments in vivo were analyzed using the student’s t-test for TGI values and the Mann–Whitney U test for TGD using Excel and GraphPad Prism. Fisher’s exact test was used to probe significance of differences in response frequency.

[1] = 25 mg/kg Q7Dx2 IV, Day 53, SCID-beige female mice
[2] = 25 mg/kg Q7Dx2 IV, Day 60, SCID-beige female mice
[3] = 25 mg/kg Q7Dx2 IV, SCID-beige female mice, Day 21
[4] = 25 mg/kg Q7Dx2 IV, SCID-beige female mice, Day 24
[5] = 25 mg/kg Q7Dx2 IV, SCID-beige female mice, Day 26
[6] = 25 mg/kg Q7Dx2 IV, SCID-beige female mice, Day 28
[7] = 25 mg/kg Q7Dx2 IV, SCID-beige female mice, Day 34, surviving animals
[8] = 25 mg/kg Q7Dx2 IV, SCID-beige female mice, Day 43
[9] = 25 mg/kg Q7Dx2 IV, SCID-beige female mice, Day 50
[10] = 25 mg/kg Q7Dx2 IV, SCID-beige female mice, Day 55, remaining animals
[11] = 25 mg/kg Q7Dx2 IV, SCID-beige female mice, Day 62
[12] = 25 mg/kg Q7Dx2 IV, SCID-beige female mice, Day 64
[13] = 25 mg/kg Q7Dx2 IV, SCID-beige female mice, Day 68
[14] = 25 mg/kg Q7Dx2 IV, SCID-beige female mice, Day 68, surviving animals
[15] = 25 mg/kg Q7Dx2 IV, SCID-beige mice, Day 13 (measure date 10/25/2017, dosing begin 10/26/2017)

Q: What does the source list for `Cc1c(Cl)c2c(Cl)c(C)c1-c1c(-c3ccc(F)cc3)sc3ncnc(c13)O[C@@H](C(=O)O)Cc1cc(ccc1OCc1ccnc(-c3ccc(OC[C@H]4COCCO4)cc3)n1)OC[C@@H](CN1CCN(C)CC1)O2` [Compound A-1747745.0]?
A: Xenograft AMO-1 (DSMZ) (mm³) Day 34 Mean (6.25 mg/kg QDx1 IV, Day 34, group mean): 1592.98 mm³; Xenograft AMO-1 (DSMZ) (mm³) Day 34 Median (6.25 mg/kg QDx1 IV, Day 34, group median): 1465.20 mm³; Mortality Observation Day 34 (6.25 mg/kg QDx1 IV, Day 34, per animal): EUTV; Xenograft AMO-1 (DSMZ) (mm³) Day 36 (individual animals) (6.25 mg/kg QDx1 IV, Day 36, SCID-beige female mice, tumor volume per animal (remaining animals)): 1617 mm³ and 1642 mm³ and 1750 mm³ and 2010 mm³; Xenograft AMO-1 (DSMZ) (mm³) Day 36, Mean (6.25 mg/kg QDx1 IV, Day 36, group mean of remaining animals): 1754.60 mm³; Xenograft AMO-1 (DSMZ) (mm³) Day 36, Median (6.25 mg/kg QDx1 IV, Day 36, group median of remaining animals): 1695.89 mm³; Mortality Observation Day 36 (6.25 mg/kg QDx1 IV, Day 36, per animal): EUTV; Mortality Observation Day 19 (25 mg/kg Q7Dx2 IV, AMO-1 xenograft, SCID-beige female mice, individual animals): MORB; % T/C (mean) (25 mg/kg Q7Dx2 IV, Day 13): 102.38%; % T/C (median) (25 mg/kg Q7Dx2 IV, Day 13): 100.76%; % T/C (mean) (25 mg/kg Q7Dx2 IV, Day 19): 6.47%; % T/C (median) (25 mg/kg Q7Dx2 IV, Day 19): 6.98%; % T/C (mean) (25 mg/kg Q7Dx2 IV, Day 21): 4.61%; % T/C (median) (25 mg/kg Q7Dx2 IV, Day 21): 4.91%; % T/C (mean) (25 mg/kg Q7Dx2 IV, Day 24): 1.88%; % T/C (median) (25 mg/kg Q7Dx2 IV, Day 24): 1.98%; % T/C (mean) (25 mg/kg Q7Dx2 IV, Day 26): 1.29%; % T/C (median) (25 mg/kg Q7Dx2 IV, Day 26): 1.46%; % T/C (mean) (25 mg/kg Q7Dx2 IV, Day 28): 0.52%; % T/C (median) (25 mg/kg Q7Dx2 IV, Day 28): 0.52%; Xenograft AMO-1 (DSMZ) (mm³) Day 53 (individual animals) [1]: 15 mm³; Xenograft AMO-1 (DSMZ) (mm³) Day 53 Mean [1]: 15.19 mm³; Xenograft AMO-1 (DSMZ) (mm³) Day 53 Median [1]: 15.19 mm³; Xenograft AMO-1 (DSMZ) (mm³) Day 60 (individual animals) [2]: 155 mm³ and 71 mm³; Xenograft AMO-1 (DSMZ) (mm³) Day 60, Mean [2]: 112.89 mm³; Xenograft AMO-1 (DSMZ) (mm³) Day 60, Median [2]: 112.89 mm³; Xenograft AMO-1 (DSMZ) Day 19 Mean (25 mg/kg Q7Dx2 IV, SCID-beige female mice, Day 19, group mean tumor volume): 25.56 mm³; Xenograft AMO-1 (DSMZ) Day 19 Median (25 mg/kg Q7Dx2 IV, SCID-beige female mice, Day 19, group median tumor volume): 25.56 mm³; Xenograft AMO-1 (DSMZ) (mm³) Day 19, individual animals (25 mg/kg Q7Dx2 IV, SCID-beige female mice, Day 19, individual tumor volumes): 18 mm³ and 33 mm³ and MORB; Mortality Observation Day 21, individual animals [3]: STOX (2×) and MORB (2×); Xenograft AMO-1 (DSMZ) Day 21, Mean [3]: 29.76 mm³; Xenograft AMO-1 (DSMZ) Day 21, Median [3]: 29.76 mm³; Xenograft AMO-1 (DSMZ) tumor volume Day 21, individual animals [3]: 19 mm³ and 40 mm³; Xenograft AMO-1 (DSMZ) (mm³) Day 24, individual animals [4]: 17 mm³ and 19 mm³; Xenograft AMO-1 (DSMZ) tumor volume Day 24, Mean [4]: 17.90 mm³; Xenograft AMO-1 (DSMZ) tumor volume Day 24, Median [4]: 17.90 mm³; Xenograft AMO-1 (DSMZ) tumor volume Day 26, Mean [5]: 17.97 mm³; Xenograft AMO-1 (DSMZ) tumor volume Day 26, Median [5]: 17.97 mm³; Xenograft AMO-1 (DSMZ) tumor volume Day 26, individual animals [5]: 18 mm³; Xenograft AMO-1 (DSMZ) (mm³) Day 28, individual animals [6]: 11 mm³; Xenograft AMO-1 (DSMZ) Day 28 Mean [6]: 11.33 mm³; Xenograft AMO-1 (DSMZ) Day 28 Median [6]: 11.33 mm³; Xenograft AMO-1 (DSMZ) (mm³) Day 34, individual animal tumor volume (25 mg/kg Q7Dx2 IV, SCID-beige female mice, Day 34): 21 mm³ and 19 mm³; Xenograft AMO-1 (DSMZ) (mm³) Day 34 Mean [7]: 20.16 mm³; Xenograft AMO-1 (DSMZ) (mm³) Day 34 Median [7]: 20.16 mm³; Xenograft AMO-1 (DSMZ) (mm³) Day 43, Mean [8]: 15.04 mm³; Xenograft AMO-1 (DSMZ) (mm³) Day 43, Median [8]: 15.04 mm³; Xenograft AMO-1 (DSMZ) (mm³) Day 43, individual animal tumor volume [8]: 15 mm³; Xenograft AMO-1 (DSMZ) tumor volume Day 50, Mean [9]: 15.94 mm³; Xenograft AMO-1 (DSMZ) tumor volume Day 50, Median [9]: 15.94 mm³; Xenograft AMO-1 (DSMZ) tumor volume Day 50, individual animals [9]: 15 mm³ and 17 mm³; Xenograft AMO-1 (DSMZ) tumor volume Day 55, individual animals (25 mg/kg Q7Dx2 IV, SCID-beige female mice, Day 55): 13 mm³ and 9 mm³; Xenograft AMO-1 (DSMZ) tumor volume Day 55, Mean [10]: 10.76 mm³; Xenograft AMO-1 (DSMZ) tumor volume Day 55, Median [10]: 10.76 mm³; Xenograft AMO-1 (DSMZ) (mm³) Day 62 (individual animals) [11]: 198 mm³ and 12 mm³; Xenograft AMO-1 (DSMZ) (mm³) Day 62, Mean [11]: 104.96 mm³; Xenograft AMO-1 (DSMZ) (mm³) Day 62, Median [11]: 104.96 mm³; Xenograft AMO-1 (DSMZ) (mm³) Day 64 (individual animals) [12]: 249 mm³ and 21 mm³; Xenograft AMO-1 (DSMZ) (mm³) Day 64, Mean [12]: 134.75 mm³; Xenograft AMO-1 (DSMZ) (mm³) Day 64, Median [12]: 134.75 mm³; Mortality Observation Day 68, individual animal [13]: EUTV; Xenograft AMO-1 (DSMZ) (mm³) Day 68, individual animal tumor volume [13]: 1794 mm³ and 24 mm³; Xenograft AMO-1 (DSMZ) (mm³) Day 68, Mean [14]: 908.91 mm³; Xenograft AMO-1 (DSMZ) (mm³) Day 68, Median [14]: 908.91 mm³; Xenograft AMO-1 (DSMZ) tumor volume Day 13, Mean [15]: 225.47 mm³; Xenograft AMO-1 (DSMZ) tumor volume Day 13, Median [15]: 225.47 mm³; Xenograft AMO-1 (DSMZ) tumor volume Day 13, individual animals [15]: 233 mm³ and 218 mm³; Xenograft AMO-1 (DSMZ) (mm³) Day 40, Mean (25 mg/kg Q7Dx2 IV, SCID-beige mice, Day 40, group mean of remaining animals): 7.70 mm³; Xenograft AMO-1 (DSMZ) (mm³) Day 40, Median (25 mg/kg Q7Dx2 IV, SCID-beige mice, Day 40, group median of remaining animals): 7.70 mm³; Xenograft AMO-1 (DSMZ) (mm³) Day 40, individual animal (25 mg/kg Q7Dx2 IV, SCID-beige mice, Day 40, tumor volume of single animals): 8 mm³; Xenograft AMO-1 (DSMZ) Day 57, Mean (25 mg/kg Q7Dx2 IV, SCID-beige mice, Day 57, group mean of remaining animals): 13.23 mm³; Xenograft AMO-1 (DSMZ) Day 57, Median (25 mg/kg Q7Dx2 IV, SCID-beige mice, Day 57, group median of remaining animals): 13.23 mm³; Xenograft AMO-1 (DSMZ) (mm³) Day 36, Mean (25 mg/kg Q7Dx2 IV, group mean of remaining animals, SCID-beige mice, Day 36): 10.51 mm³; Xenograft AMO-1 (DSMZ) (mm³) Day 32 Mean (25 mg/kg Q7Dx2 IV, group mean tumor volume, Day 32): 48.75 mm³; Xenograft AMO-1 (DSMZ) (mm³) Day 36, Median (25 mg/kg Q7Dx2 IV, group median of remaining animals, SCID-beige mice, Day 36): 10.51 mm³; Xenograft AMO-1 (DSMZ) (mm³) Day 32 Median (25 mg/kg Q7Dx2 IV, group median tumor volume, Day 32): 48.75 mm³; Xenograft AMO-1 (DSMZ) (mm³) Day 32 (25 mg/kg Q7Dx2 IV, individual animal tumor volume, Day 32): 94 mm³ and 4 mm³; Xenograft AMO-1 (DSMZ) (mm³) Day 36 (25 mg/kg Q7Dx2 IV, individual animal tumor volume, SCID-beige mice, Day 36): 11 mm³
